In paper PMC9186373, “Design, synthesis, and biological evaluation of novel carbazole derivatives as potent DNMT1 inhibitors with reasonable PK properties” (Journal of Enzyme Inhibition and Medicinal Chemistry, 2022):
Read-outs that look alike come from different tables or passages of the source.

Legend:
[1] = system: G9a (histone H3 lysine 9 methyltransferase); test: Methylation inhibition assay (AlphaLisa), G9a; type: biochemical; conditions: 50 µM; for inhibitory activity against G9a: Figure 3; for Relative selectivity index of DNMT1 vs G9a: 1 - selected enzyme inhibition/DNMT1 inhibition
Protocol: (§1) All the compounds were first screened using an ELISA EpiQuik DNA methyltransferase (DNMT) activity/inhibitor assay kit (Epigentek). To measure the effects of the compounds on human DNMT1 activity, 200 nM purified DNMT1 was incubated with 50 µM and 100 µM of the different compounds and S-adenosylmethionine in the DNMT assay buffer in the assay plate at 37 °C for 2 h[36]. Next, every sample was incubated with the capture and detection antibody, followed by incubation with developer solution for 10 min at room temperature. The absorbance was measured at 450 nm using a POLARstar Omega microplate reader (BMG). S-Adenosylhomocysteine (AdoHcy) was used as a positive control. Methylation inhibition assays for EZH2, LSD, and G9a were performed in modified Tris, pH 9.0, buffer using AlphaLisa technology. An amount of 10 µL of the reaction system contained a corresponding concentration of SAM (Sigma) (EZH2 50 µM, LSD 50 µM, and G9a 50 µM), which was the Km value in each enzymatic reaction, plus 100 nM biotinylated peptide H3 (1–21) (synthesis by GLChina) and the relevant enzyme concentration (0.03 nM EZH2, 0.03 nM LSD, and 0.03 nM G9a). The proteins were preincubated with various compound concentrations for 15 min at room temperature before the substrate and SAM were added. After 60 min of incubation at room temperature, acceptor and donor AlphaLisa beads were added according to the manufacturer’s recommendations. The signals were read in Alpha mode with an EnSpire multimode plate reader (PerkinElmer). IC50 values were derived by fitting the data for the inhibition percentage to a dose-response curve by non-linear regression in GraphPad Prism 5.0[20].
(§2) In addition to DNMT1, there are many other methyltransferases that can bind with S-adenosyl-L-methionine (SAM) to facilitate transmethylation reactions[24]^,[25]. To investigate the selectivity of these potent compounds for DNMT1, we then evaluated the inhibitory activities against DNMT1 and other important methyltransferases at the concentration of 50 µM, including DNMT3A/3L, DNMT3B/3L, and other SAM-dependent enzymes[1]^,[2]^,[26], such as EZH2[27], LSD1[28], G9a (histone H3 lysine 9 methyltransferase)[29].
(§3) 493 Relative selectivity index
(§4) 494 Relative selectivity index of DNMT1 is calculated by formula: DNMT1-selectivity
(§5) 495 index =1 - selected enzyme inhibition/DNMT1 inhibition. The closer
(§6) 496 that this value is to 1 or even more than 1, the better DNMT1-selectivity the of the
(§7) 498 Table S1. Relative selectivity index of DNMT1
Cpd. […]

[2] = molecular target: DNMT1 (Homo sapiens, UniProt P26358); test: H3-labelled radioactive methylation assay; type: biochemical; conditions: H3-labeled radioactive methylation assay; 40 nM DNMT1
Chain of DNMT1 (P26358 whole entry): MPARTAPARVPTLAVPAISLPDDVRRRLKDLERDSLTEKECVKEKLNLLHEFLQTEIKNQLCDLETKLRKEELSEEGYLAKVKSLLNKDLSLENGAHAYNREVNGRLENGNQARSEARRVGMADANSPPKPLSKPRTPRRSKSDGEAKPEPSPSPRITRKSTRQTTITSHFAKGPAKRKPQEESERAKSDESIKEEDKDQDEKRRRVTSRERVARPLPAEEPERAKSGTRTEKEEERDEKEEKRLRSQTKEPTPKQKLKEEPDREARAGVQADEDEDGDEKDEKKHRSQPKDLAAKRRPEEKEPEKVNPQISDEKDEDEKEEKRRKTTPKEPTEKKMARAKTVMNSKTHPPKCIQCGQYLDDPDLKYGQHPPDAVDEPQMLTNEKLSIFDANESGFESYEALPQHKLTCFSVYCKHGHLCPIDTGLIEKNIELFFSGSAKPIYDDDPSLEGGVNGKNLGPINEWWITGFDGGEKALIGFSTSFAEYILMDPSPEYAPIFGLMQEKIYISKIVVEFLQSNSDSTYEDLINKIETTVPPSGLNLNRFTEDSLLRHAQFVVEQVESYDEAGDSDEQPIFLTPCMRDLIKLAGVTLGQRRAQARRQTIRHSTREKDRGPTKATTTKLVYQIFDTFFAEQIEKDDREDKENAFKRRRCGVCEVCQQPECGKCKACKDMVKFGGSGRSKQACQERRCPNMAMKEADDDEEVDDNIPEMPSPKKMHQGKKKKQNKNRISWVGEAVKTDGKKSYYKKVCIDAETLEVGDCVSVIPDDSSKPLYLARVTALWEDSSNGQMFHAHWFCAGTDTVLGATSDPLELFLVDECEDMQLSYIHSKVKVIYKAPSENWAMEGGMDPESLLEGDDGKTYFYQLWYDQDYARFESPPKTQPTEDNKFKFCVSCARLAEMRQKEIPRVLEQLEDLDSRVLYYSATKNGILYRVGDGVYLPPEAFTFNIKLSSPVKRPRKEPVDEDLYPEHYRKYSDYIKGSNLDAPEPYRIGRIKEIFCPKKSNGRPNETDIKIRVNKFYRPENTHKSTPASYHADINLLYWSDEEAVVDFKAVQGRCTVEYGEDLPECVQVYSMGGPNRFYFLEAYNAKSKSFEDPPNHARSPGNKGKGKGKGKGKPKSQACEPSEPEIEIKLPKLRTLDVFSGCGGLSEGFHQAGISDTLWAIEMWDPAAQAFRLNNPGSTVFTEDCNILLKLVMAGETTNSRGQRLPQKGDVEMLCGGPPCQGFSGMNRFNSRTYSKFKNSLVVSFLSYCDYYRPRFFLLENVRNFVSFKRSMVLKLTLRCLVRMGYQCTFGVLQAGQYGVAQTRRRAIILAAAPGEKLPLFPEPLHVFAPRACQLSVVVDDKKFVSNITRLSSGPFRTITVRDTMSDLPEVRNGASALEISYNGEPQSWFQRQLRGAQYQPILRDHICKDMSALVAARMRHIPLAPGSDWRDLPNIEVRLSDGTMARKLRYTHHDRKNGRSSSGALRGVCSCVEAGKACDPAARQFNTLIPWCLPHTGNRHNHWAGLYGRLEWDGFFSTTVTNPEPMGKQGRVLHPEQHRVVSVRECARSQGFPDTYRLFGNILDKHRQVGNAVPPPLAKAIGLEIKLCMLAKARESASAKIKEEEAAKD
Protocol: The DNMT1 radioactive methylation inhibition assays were performed in 30 µL reactions containing 0.1 µM adenosyl-L-methionine S-[methyl-^3H] (^3H-SAM, ^15 Ci/mmol, PerkinElmer), 0.25 µg/mL poly (dI-dC)·poly (dI-dC) (Sigma), 40 nM DNMT1 in 50 mM Tris-HCl, pH 8.0, 1 mM DTT, 5% glycerol, and 100 µg/mL BSA. The proteins were preincubated with a range of compound concentrations for 15 min at room temperature before adding the substrate and [^3H] SAM. After 60 min of incubation at 37 °C, the reaction systems were transferred to a MultiScreen HTS filter plate (Millipore), and the plate was washed 3 times with doubly distilled H2O via a vacuum. The radioactivity was determined by liquid scintillation counting (MicroBeta, PerkinElmer). IC50 values were derived by fitting the data for the inhibition percentage to a dose-response curve by non-linear regression in GraphPad Prism 5.0.
To quantitatively analyse DNMT1 inhibitory effect, the H^3-labelled radioactive methylation assay was conducted to measure the methyltransferase activity of DNMT1 at a range of concentrations for these compounds.

[3] = system: DNMT3B/3L; test: Methyltransferase enzymatic selectivity profiling, DNMT3B/3L; type: biochemical; conditions: 50 µM; for inhibitory activity against DNMT3B/3L: Figure 3; for Relative selectivity index of DNMT1 vs DNMT 3B/3L: 1 - selected enzyme inhibition/DNMT1 inhibition
Protocol: as §2
(§8) Here, the selectivity of non-nucleoside DNMT1 inhibitors is somewhat predictable because other methyltransferases mentioned above catalyse different substrates and share very low homology with DNMT1, even in their catalytic domain[30–32]. Subsequently, the screened compounds were evaluated in a dose-dependent assay against HCT116 (human colon cancer cell line) and A549 (human lung carcinoma cell line).
as §3, §4, §5, §6, §7
Cpd. […]

[4] = system: EZH2; test: Methylation inhibition assay (AlphaLisa), EZH2; type: biochemical; conditions: 50 µM; for inhibitory activity against EZH2: Figure 3; for Relative selectivity index of DNMT1 vs EZH2: 1 - selected enzyme inhibition/DNMT1 inhibition
Protocol: as §1, §2, §3, §4, §5, §6, §7
Cpd. […]

[5] = system: A549 (human lung cancer cells); test: MTT assay, A549; type: cell-based
Protocol: (§9) The human lung cancer cells (A549) and human colon cancer cells (HCT116) were cultured in an RPMI-1640 medium containing 10% FBS, 100 U/mL streptomycin, and 100 U/mL penicillin at 37 °C in a humidified atmosphere with 5% CO2. All compounds were dissolved in DMSO and stock solutions were stored at −20 °C. Reagents were freshly diluted to the marked concentrations with a culture medium before use. DMSO concentration in experimental conditions never exceeded 0.1% (v/v). All cell lines were provided by the cell laboratory, School of pharmaceutical sciences, Guangzhou Medical University.
(§10) Cell viability was detected using an MTT assay kit. Cells were seeded into 96-well plates at a density of ∼1.0 × 10^4/well. 24 h later, sextuplicate wells were treated with media and new compounds at a fixed concentration (50 µM). After 24, 48, and 72 h, the drug-containing medium was replaced by a 100 µL fresh medium with 5 mg/mL MTT solution. After 4 h of incubation, the medium with MTT was removed, and 100 µL of DMSO was added to each well. The plates were gently agitated until the purple formazan crystals were dissolved, and the OD490 was determined using a […] (Olympus BX53, Japan). The data were calculated and plotted as the percent viability compared to the control.

[6] = system: DNMT3A/3L; test: Methyltransferase enzymatic selectivity profiling, DNMT3A/3L; type: biochemical; conditions: 1 - selected enzyme inhibition/DNMT1 inhibition; 50 µM
Protocol: as §2, §8, §3, §4, §5, §6, §7
Cpd. […]

[7] = system: HCT116 (human colon cancer cells); test: MTT assay, HCT116; type: cell-based
Protocol: as §9, §10

[8] = system: human DNMT1; test: ELISA EpiQuik DNA methyltransferase (DNMT) activity/inhibitor assay; type: biochemical; conditions: 200 nM purified DNMT1, EpiQuik kit; for Inh% at 50 μM: 50 μM compound; for Inh% at 100 μM: 100 μM compound
Protocol: as §1
DNMT1 inhibition test was performed on 30 candidates to verify their biochemical activities. The EpiQuik DNA methyl-transferase (DNMT) activity/inhibitor assay kit (Epigentek) was used to identify the activity of synthetic compounds.

[9] = system: LSD1; test: Methylation inhibition assay (AlphaLisa), LSD1; type: biochemical; conditions: 1 - selected enzyme inhibition/DNMT1 inhibition; 50 µM
Protocol: as §1, §2, §3, §4, §5, §6, §7
Cpd. […]

[10] = 24 h, read-out: Inh % at 50 μM, A549, 24 h
[11] = 48 h, read-out: Inh % at 50 μM, A549, 48 h
[12] = 72 h, read-out: Inh % at 50 μM, A549, 72 h
[13] = HCT-116, 24 h, read-out: Inh % at 50 μM, HCT116, 24 h
[14] = HCT-116, 48 h, read-out: Inh % at 50 μM, HCT116, 48 h
[15] = HCT-116, 72 h, read-out: Inh % at 50 μM, HCT116, 72 h

SMILES: OC(CNCCc1c[nH]c2ccccc12)Cn1c2ccccc2c2cc(F)ccc21 (stereo not shown) [WK-1, 1-((2-(1H-indol-3-yl)ethyl)amino)-3-(3-fluoro-9H-carbazol-9-yl)propan-2-ol]
- inhibitory activity against G9a [1]: hardly any inhibitory activities
- Relative selectivity index of DNMT1 vs G9a [1]: 0.84
- IC50 [2]: 28 µM
- melting point: 137 to 139 °C
- inhibitory activity against DNMT3B/3L [3]: hardly any inhibitory activities
- Relative selectivity index of DNMT1 vs DNMT 3B/3L [3]: 1.15
- inhibitory activity against EZH2 [4]: hardly any inhibitory activities
- Relative selectivity index of DNMT1 vs EZH2 [4]: 0.93
- inhibition at 50 µM [5, 10]: 88.2%
- inhibition at 50 µM [5, 11]: 78.6%
- inhibition at 50 µM [5, 12]: 87.6%
- Relative selectivity index of DNMT1 vs DNMT 3A/3L [6]: 0.49
- inhibition at 50 µM [7, 13]: 90.9%
- inhibition at 50 µM [7, 14]: 88%
- inhibition at 50 µM [7, 15]: 94.9%
- Inh% at 50 μM [8]: 82%
- Inh% at 100 μM [8]: 100%
- Relative selectivity index of DNMT1 vs LSD1 [9]: 0.18

SMILES: OC(CNCCc1c[nH]c2ccccc12)Cn1c2ccc(F)cc2c2cc(F)ccc21 (stereo not shown) [WK-12, 1-((2-(1H-indol-3-yl)ethyl)amino)-3-(3,6-difluoro-9H-carbazol-9-yl)propan-2-ol]
- inhibitory activity against G9a [1]: hardly any inhibitory activities
- Relative selectivity index of DNMT1 vs G9a [1]: 0.93
- IC50 [2]: 17 µM
- melting point: 130 to 132 °C
- inhibitory activity against DNMT3B/3L [3]: hardly any inhibitory activities
- Relative selectivity index of DNMT1 vs DNMT 3B/3L [3]: 1.09
- inhibitory activity against EZH2 [4]: hardly any inhibitory activities
- Relative selectivity index of DNMT1 vs EZH2 [4]: 0.91
- inhibition at 50 µM [5, 10]: 59.9%
- inhibition at 50 µM [5, 11]: 80.1%
- inhibition at 50 µM [5, 12]: 84.7%
- Relative selectivity index of DNMT1 vs DNMT 3A/3L [6]: 0.67
- inhibition at 50 µM [7, 13]: 77.7%
- inhibition at 50 µM [7, 14]: 88.8%
- inhibition at 50 µM [7, 15]: 96.7%
- Inh% at 50 μM [8]: 99%
- Inh% at 100 μM [8]: 94%
- Relative selectivity index of DNMT1 vs LSD1 [9]: 0.23

SMILES: Oc1ccc(CCNCC(O)Cn2c3ccc(F)cc3c3cc(F)ccc32)cc1 (stereo not shown) [WK-13, 4-(2-((3-(3,6-Difluoro-9H-carbazol-9-yl)-2-hydroxypropyl)amino)ethyl) phenol]
- inhibitory activity against G9a [1]: hardly any inhibitory activities
- Relative selectivity index of DNMT1 vs G9a [1]: 0.91
- IC50 [2]: 19 µM
- melting point: 143 to 145 °C
- inhibitory activity against DNMT3B/3L [3]: hardly any inhibitory activities
- Relative selectivity index of DNMT1 vs DNMT 3B/3L [3]: 1.28
- inhibitory activity against EZH2 [4]: hardly any inhibitory activities
- Relative selectivity index of DNMT1 vs EZH2 [4]: 1.01
- inhibition at 50 µM [5, 11]: 69.2%
- inhibition at 50 µM [5, 12]: 84.1%
- Relative selectivity index of DNMT1 vs DNMT 3A/3L [6]: 0.68
- inhibition at 50 µM [7, 14]: 86.3%
- inhibition at 50 µM [7, 15]: 93.2%
- Inh% at 50 μM [8]: 82%
- Inh% at 100 μM [8]: 90%
- Relative selectivity index of DNMT1 vs LSD1 [9]: 0.33
